Entries after “also recorded” stand apart in the source; their conditions may differ.
Columns and labels:
[1] = test system: proteases of maize apoplastic fluid processing UmPit2; experiment: Effect of protease inhibitors on processing of UmPit2 in maize apoplastic fluid; type: biochemical; settings: apoplastic fluid preincubated with inhibitor 10 min; 0, 15, 30 min
Method: Fig. 5 PLCPs cleave UmPit2 in the apoplast. a Input used to perform inhibitory test of Pit2 stability. Heterologous expressed UmPit2 and maize AF at different time points during the experiment. b Addition of E-64 stabilizes Pit2 degradation. Four inhibitors for main classes of proteases: E-64 for cysteine proteases, DCI for serine hydrolases, EDTA for metalloproteases and Pepstatin A for aspartic proteases were preincubated with maize AF for 10 min. Pit2 degradation was analyzed over time (0, 15 and 30 min) using SyproRuby staining. c Inhibition of cysteine proteases stabilizes Pit2 in the apoplast. Maize AF was coincubated with a mix of inhibitors containing DCI [10 µM], EDTA [1 mM] and Pepstatin A [10 µM] (Inh. Mix) with or without E-64 [10 µM]. As a control the noninhibitor sample containing DMSO is shown. d Fractionation of SA-treated apoplastic fluid by anion-exchange chromatography. […] F-24 was preincubated with 10 µM E-64 or DMSO followed by addition of purified UmPit2. Samples were incubated for 0, 15 and 30 min and analyzed by gel electrophoresis using SyproRuby. f UmPit2 is processed at similar rates as an endogenous maize substrate. UmPit2 as well as the endogenous maize PLCP substrate Prozip11 were heterologous expressed in E-coli. 3.2 µM proteins were coincubated with F-24 pretreated with inhibitor mix (Inh. mix) in the presence or absence of E-64. Processing of Prozip11 and UmPit2 has been monitored over time. Samples were analyzed by gel electrophoresis and stained with SyproRuby for visualization. As a control purified proteins as well as F-24 were loaded on gel (right gel). DMSO dimethyl sulfoxide, DCI 3,4-dichloroisocoumarin
(§1) Approximately 41 µg/ml heterologous expressed UmPit2 and UhPit2 proteins (concentration calculated with the previously described semi-quantitative approach based on SyproRuby) were incubated with or without apoplastic fluids (ca. 200 µg/ml) over time. Reaction was stopped by adding 2× SDS-gel loading buffer) and samples were analyzed by gel electrophoresis and SyproRuby staining (Invitrogen, Paisley, UK). Inhibition of apoplastic fluids containing specific inhibitors was performed as described in the main text. E-64 and pepstatin A were diluted in DMSO at a desired concentration. DCI was diluted in dimethyl formamide. All compounds have been purchased by Sigma-Aldrich (Taufkirchen, Germany). Stability experiments using F-24 were performed using ca. 1.4 µg/µl of the fraction and 3.2 µM of heterologous expressed UmPit2 or […].

[2] = test system: F-24 (PLCP-enriched fraction of maize apoplastic fluid); experiment: Stability/processing in PLCP-enriched fraction F-24 (SDS gel, SyproRuby); type: in vitro ADME; settings: F-24 preincubated with 50 µM / 10 µM E-64
Method: as §1

[3] = test system: PLCPs of fractionated maize apoplastic fluid; experiment: PLCP activity of anion-exchange fractions, substrate Z-Phe-Arg-AMC; type: biochemical
Method: Fig. 5 PLCPs cleave UmPit2 in the apoplast. a Input used to perform inhibitory test of Pit2 stability. Heterologous expressed UmPit2 and maize AF at different time points during the experiment. b Addition of E-64 stabilizes Pit2 degradation. Four inhibitors for main classes of proteases: E-64 for cysteine proteases, DCI for serine hydrolases, EDTA for metalloproteases and Pepstatin A for aspartic proteases were preincubated with maize AF for 10 min. Pit2 degradation was analyzed over time (0, 15 and 30 min) using SyproRuby staining. c Inhibition of cysteine proteases stabilizes Pit2 in the apoplast. […] Samples were incubated for 0, 15 and 30 min and analyzed by gel electrophoresis using SyproRuby. f UmPit2 is processed at similar rates as an endogenous maize substrate. […] Processing of Prozip11 and UmPit2 has been monitored over time. Samples were analyzed by gel electrophoresis and stained with SyproRuby for visualization. […]
Activity of PLCPs present in isolated apoplastic fluids was monitored using 10 µM final concentration of the fluorogenic substrate Z-Phe-Arg-7-amido-4-methylcoumarin (Sigma-Aldrich, Taufkirchen, Germany). AMC released (RFU) over time was monitored at 460 nm using a Tecan Infinite M200 PRO plate reader (Tecan Group Ltd., Männedorf, Switzerland). […] The inhibitor control was used to normalize all measurements and obtain a read-out for specific PLCP activity. […]

[4] = test system: apoplastic PLCPs of barley; experiment: Apoplastic PLCP activity in SA-treated barley; type: in vivo; settings: Supplementary Fig. 9

| Compound | effect on processing of UmPit2 in maize apoplastic fluid (in words) [1] | effect of E-64 on processing by F-24 (in words) [2] | PLCP activity of fractions with inhibitor (in words) [3] | induction of apoplastic PLCPs by SA (in words) [4] |
| --- | --- | --- | --- | --- |
| O=c1oc(Cl)c(Cl)c2ccccc12 [DCI, 3,4-dichloroisocoumarin] | Processing of UmPit2 was observed gradually | – | – | – |
| CC(C)C[C@H](NC(=O)[C@H]1O[C@@H]1C(=O)O)C(=O)NCCCCN=C(N)N [E-64] | E-64 stabilizes UmPit2 | stabilized in the fraction preincubated with E-64; also recorded: stabilization of Prozip1 and UmPit2 | did not show any activity | – |
| O=C(O)CN(CCN(CC(=O)O)CC(=O)O)CC(=O)O [EDTA] | Processing of UmPit2 was observed gradually | – | – | – |
| O=C(O)c1ccccc1O [SA, salicylic acid] | – | – | – | not found in barley |
| pepstatin-A | Processing of UmPit2 was observed gradually | – | – | – |
